ChEMBL document CHEMBL3132769, “Fragment growing to retain or alter the selectivity of anchored kinase hinge-binding fragments” (Medchemcomm, 2014)

Tests used:
[1] = target: Cyclin-dependent kinase 2 (Homo sapiens) (UniProt P24941); test: Inhibition of human full length CDK2 expressed in baculovirus assessed as substrate phosphorylation using fluorescence-labelled peptides as substrate at 70 uM after 90 mins by microfluidic peptide phosphorylation assay
[2] = target: Ribosomal protein S6 kinase alpha-5 (Homo sapiens) (UniProt O75582); test: Inhibition of human full length MSK1 expressed in baculovirus assessed as substrate phosphorylation using fluorescence-labelled peptides as substrate at 70 uM after 90 mins by microfluidic peptide phosphorylation assay
Sequence of Ribosomal protein S6 kinase alpha-5 (Homo sapiens) (O75582 whole entry, looked up, the tested form may be a part): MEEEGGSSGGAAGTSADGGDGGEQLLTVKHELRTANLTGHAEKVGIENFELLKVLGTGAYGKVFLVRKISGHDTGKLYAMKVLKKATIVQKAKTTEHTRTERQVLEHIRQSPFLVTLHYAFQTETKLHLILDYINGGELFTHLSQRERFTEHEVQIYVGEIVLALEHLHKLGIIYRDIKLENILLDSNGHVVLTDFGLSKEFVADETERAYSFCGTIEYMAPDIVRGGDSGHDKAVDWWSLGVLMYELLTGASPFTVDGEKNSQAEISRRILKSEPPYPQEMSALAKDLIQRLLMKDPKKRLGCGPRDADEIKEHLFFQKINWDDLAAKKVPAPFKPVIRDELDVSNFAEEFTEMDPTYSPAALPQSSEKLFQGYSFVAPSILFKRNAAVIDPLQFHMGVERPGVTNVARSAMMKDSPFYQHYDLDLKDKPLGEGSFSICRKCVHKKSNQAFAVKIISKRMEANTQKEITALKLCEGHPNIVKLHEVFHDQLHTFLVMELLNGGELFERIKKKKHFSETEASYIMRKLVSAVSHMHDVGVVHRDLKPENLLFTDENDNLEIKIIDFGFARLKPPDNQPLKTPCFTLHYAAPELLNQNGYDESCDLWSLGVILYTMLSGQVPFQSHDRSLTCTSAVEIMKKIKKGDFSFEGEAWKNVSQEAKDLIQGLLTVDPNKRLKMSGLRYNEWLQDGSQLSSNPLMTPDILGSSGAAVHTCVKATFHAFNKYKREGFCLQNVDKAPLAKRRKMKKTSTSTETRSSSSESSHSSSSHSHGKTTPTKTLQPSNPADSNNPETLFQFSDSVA

[3] = target: Tyrosine-protein kinase ABL2 (Homo sapiens) (UniProt P42684); test: Inhibition of human truncated Arg expressed in baculovirus assessed as substrate phosphorylation using fluorescence-labelled peptides as substrate at 95 uM after 90 mins by microfluidic peptide phosphorylation assay
[4] = target: Serine/threonine-protein kinase MARK1 (Homo sapiens) (UniProt Q9P0L2); test: Inhibition of human full length MARK1 expressed in baculovirus assessed as substrate phosphorylation using fluorescence-labelled peptides as substrate at 9 uM after 90 mins by microfluidic peptide phosphorylation assay
Sequence of Serine/threonine-protein kinase MARK1 (Homo sapiens) (Q9P0L2 whole entry, looked up, the tested form may be a part): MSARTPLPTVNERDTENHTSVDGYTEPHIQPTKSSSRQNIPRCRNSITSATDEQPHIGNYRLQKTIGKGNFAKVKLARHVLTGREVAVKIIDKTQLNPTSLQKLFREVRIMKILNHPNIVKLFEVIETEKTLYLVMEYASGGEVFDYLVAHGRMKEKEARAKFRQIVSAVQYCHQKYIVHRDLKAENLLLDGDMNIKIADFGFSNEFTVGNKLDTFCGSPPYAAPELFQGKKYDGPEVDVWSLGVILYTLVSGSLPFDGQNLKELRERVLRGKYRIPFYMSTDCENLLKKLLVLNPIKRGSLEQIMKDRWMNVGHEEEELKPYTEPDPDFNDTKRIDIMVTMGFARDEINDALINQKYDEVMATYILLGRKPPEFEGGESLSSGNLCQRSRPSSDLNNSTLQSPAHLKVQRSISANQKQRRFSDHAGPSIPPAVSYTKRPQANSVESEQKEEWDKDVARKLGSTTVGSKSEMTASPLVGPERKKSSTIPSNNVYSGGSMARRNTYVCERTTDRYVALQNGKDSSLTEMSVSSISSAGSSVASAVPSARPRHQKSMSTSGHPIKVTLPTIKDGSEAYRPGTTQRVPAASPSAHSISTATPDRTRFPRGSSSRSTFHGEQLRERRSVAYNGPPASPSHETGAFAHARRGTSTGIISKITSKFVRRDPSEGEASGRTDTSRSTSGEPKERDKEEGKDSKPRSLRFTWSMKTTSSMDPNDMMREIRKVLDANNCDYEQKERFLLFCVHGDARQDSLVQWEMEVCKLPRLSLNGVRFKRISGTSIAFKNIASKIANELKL

[5] = target: Serine/threonine-protein kinase PAK 2 (Homo sapiens) (UniProt Q13177); test: Inhibition of human truncated PAK2 expressed in Escherichia coli cell assessed as substrate phosphorylation using fluorescence-labelled peptides as substrate at 1000 uM after 90 mins by microfluidic peptide phosphorylation assay
Sequence of Serine/threonine-protein kinase PAK 2 (Homo sapiens) (Q13177 whole entry, the tested form may be a part): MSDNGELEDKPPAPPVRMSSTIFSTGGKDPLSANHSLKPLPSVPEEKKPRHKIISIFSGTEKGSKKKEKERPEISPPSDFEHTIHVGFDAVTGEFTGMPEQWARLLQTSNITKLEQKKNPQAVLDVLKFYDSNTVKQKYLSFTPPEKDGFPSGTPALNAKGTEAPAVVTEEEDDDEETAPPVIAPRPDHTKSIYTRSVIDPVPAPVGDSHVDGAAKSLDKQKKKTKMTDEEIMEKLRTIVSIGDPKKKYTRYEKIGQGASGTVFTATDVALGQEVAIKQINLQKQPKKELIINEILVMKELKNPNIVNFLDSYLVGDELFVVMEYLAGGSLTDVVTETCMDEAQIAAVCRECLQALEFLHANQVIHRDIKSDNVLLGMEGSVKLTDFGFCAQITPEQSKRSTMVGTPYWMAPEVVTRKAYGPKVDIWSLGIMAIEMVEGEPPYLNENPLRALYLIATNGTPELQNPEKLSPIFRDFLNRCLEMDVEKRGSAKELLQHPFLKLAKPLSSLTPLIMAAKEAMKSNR

[6] = target: MAP kinase p38 (Homo sapiens) (UniProt O15264+Q15759+Q16539+P53778); test: Inhibition of human full length p38 beta2 expressed in Escherichia coli cell assessed as substrate phosphorylation using fluorescence-labelled peptides as substrate at 2 uM after 90 mins by microfluidic peptide phosphorylation assay
Sequence of MAP kinase p38 (Homo sapiens) (O15264 whole entry, looked up, one chain of several, the tested form may be a part): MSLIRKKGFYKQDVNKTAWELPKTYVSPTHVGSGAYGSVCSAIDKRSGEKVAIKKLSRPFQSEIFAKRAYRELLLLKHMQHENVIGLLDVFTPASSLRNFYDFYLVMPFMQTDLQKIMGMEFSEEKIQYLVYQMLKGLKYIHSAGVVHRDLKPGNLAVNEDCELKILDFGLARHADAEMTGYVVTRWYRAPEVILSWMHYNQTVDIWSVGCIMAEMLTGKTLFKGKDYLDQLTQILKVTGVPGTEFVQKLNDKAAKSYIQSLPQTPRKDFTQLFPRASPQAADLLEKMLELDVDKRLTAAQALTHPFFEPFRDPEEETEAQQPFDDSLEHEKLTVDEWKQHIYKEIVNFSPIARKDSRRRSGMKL
Sequence of MAP kinase p38 (Homo sapiens) (Q15759 whole entry, looked up, one chain of several, the tested form may be a part): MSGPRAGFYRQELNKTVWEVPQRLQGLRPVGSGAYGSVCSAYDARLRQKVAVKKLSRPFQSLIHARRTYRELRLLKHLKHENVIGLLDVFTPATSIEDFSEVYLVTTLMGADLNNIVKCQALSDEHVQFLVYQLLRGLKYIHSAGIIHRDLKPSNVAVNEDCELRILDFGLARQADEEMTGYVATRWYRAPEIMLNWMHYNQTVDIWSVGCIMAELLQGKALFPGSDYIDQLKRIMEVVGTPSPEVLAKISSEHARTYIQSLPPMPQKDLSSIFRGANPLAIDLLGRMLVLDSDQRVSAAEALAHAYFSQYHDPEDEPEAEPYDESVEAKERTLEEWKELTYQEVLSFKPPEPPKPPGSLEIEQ
Sequence of MAP kinase p38 (Homo sapiens) (Q16539 whole entry, looked up, one chain of several, the tested form may be a part): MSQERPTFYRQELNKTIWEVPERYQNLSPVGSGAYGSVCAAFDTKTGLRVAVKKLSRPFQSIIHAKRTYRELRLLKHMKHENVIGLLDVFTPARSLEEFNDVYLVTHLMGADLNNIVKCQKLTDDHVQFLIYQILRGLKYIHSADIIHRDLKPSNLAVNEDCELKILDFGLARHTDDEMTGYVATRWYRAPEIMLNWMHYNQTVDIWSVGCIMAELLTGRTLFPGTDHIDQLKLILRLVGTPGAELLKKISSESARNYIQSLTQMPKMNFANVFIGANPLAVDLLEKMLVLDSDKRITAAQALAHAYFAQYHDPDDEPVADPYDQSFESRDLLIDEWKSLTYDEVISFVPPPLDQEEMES

[7] = target: Platelet-derived growth factor receptor alpha (Homo sapiens) (UniProt P16234); test: Inhibition of human PDGFR alpha catalytic domain expressed in baculovirus assessed as substrate phosphorylation using fluorescence-labelled peptides as substrate at […] after 90 mins by microfluidic peptide phosphorylation assay
Sequence of Platelet-derived growth factor receptor alpha (Homo sapiens) (P16234 whole entry, the tested form may be a part): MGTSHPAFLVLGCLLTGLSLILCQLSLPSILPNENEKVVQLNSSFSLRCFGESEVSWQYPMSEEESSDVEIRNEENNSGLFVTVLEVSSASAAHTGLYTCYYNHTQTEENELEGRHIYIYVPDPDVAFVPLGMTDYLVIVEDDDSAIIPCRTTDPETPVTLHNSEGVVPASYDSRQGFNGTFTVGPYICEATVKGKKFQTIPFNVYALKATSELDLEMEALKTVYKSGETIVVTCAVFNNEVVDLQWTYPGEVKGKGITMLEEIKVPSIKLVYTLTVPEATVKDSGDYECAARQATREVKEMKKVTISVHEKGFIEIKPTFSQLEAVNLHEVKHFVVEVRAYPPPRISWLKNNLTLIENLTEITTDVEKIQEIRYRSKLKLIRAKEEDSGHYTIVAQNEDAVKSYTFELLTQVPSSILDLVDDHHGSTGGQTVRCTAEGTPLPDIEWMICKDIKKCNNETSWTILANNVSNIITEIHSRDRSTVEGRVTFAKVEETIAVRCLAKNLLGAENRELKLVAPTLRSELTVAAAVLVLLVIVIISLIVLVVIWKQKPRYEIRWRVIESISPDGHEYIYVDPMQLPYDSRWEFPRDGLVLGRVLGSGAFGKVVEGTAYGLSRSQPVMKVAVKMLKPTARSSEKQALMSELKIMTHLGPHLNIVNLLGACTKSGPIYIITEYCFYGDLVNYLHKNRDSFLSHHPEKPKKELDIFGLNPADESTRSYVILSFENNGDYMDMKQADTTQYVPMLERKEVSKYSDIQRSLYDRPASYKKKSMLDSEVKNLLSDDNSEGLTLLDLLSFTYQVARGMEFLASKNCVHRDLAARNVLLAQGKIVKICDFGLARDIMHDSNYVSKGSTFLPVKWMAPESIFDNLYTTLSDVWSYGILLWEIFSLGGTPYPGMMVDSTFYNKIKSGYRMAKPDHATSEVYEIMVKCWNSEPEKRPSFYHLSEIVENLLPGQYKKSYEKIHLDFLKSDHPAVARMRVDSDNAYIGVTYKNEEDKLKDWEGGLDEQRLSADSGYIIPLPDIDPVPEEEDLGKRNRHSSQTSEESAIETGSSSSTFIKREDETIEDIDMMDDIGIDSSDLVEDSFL

[8] = target: T1, Testis-specific serine/threonine-protein kinase 2 (Homo sapiens) (UniProt Q96PF2); test: Inhibition of human full length TSSK2 expressed in baculovirus assessed as substrate phosphorylation using fluorescence-labelled peptides as substrate at 8 uM after 90 mins by microfluidic peptide phosphorylation assay
T1 sequence (whole entry): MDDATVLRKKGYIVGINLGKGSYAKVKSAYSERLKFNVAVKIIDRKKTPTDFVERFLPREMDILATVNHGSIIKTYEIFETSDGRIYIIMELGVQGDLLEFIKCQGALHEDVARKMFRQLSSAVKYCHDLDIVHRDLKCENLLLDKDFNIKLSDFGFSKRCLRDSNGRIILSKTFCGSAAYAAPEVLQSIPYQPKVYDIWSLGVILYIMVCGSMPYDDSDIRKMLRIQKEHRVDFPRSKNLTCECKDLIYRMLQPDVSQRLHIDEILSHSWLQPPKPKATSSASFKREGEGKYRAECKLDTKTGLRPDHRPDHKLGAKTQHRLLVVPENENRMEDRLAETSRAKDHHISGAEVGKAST

[9] = target: T2, Mitogen-activated protein kinase 12 (Homo sapiens) (UniProt P53778); test: Inhibition of human full length p38 gamma expressed in Escherichia coli cell assessed as substrate phosphorylation using fluorescence-labelled peptides as substrate at 0.1 uM after 90 mins by microfluidic peptide phosphorylation assay
T2 sequence (whole entry): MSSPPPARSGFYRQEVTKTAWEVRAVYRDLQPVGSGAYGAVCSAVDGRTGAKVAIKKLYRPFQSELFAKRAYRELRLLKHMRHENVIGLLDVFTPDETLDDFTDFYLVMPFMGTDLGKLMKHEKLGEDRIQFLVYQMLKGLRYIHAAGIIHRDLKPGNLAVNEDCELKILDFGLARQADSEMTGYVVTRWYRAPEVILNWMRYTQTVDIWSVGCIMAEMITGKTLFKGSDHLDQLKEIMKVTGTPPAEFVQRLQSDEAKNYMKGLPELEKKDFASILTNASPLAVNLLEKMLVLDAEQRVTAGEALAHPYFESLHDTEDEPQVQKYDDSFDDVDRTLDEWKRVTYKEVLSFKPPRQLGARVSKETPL

[10] = target: T3, Serine/threonine-protein kinase BRSK2 (Homo sapiens) (UniProt Q8IWQ3); test: Inhibition of human truncated BRSK2 expressed in baculovirus assessed as substrate phosphorylation using fluorescence-labelled peptides as substrate at 0.1 uM after 90 mins by microfluidic peptide phosphorylation assay
T3 sequence (whole entry): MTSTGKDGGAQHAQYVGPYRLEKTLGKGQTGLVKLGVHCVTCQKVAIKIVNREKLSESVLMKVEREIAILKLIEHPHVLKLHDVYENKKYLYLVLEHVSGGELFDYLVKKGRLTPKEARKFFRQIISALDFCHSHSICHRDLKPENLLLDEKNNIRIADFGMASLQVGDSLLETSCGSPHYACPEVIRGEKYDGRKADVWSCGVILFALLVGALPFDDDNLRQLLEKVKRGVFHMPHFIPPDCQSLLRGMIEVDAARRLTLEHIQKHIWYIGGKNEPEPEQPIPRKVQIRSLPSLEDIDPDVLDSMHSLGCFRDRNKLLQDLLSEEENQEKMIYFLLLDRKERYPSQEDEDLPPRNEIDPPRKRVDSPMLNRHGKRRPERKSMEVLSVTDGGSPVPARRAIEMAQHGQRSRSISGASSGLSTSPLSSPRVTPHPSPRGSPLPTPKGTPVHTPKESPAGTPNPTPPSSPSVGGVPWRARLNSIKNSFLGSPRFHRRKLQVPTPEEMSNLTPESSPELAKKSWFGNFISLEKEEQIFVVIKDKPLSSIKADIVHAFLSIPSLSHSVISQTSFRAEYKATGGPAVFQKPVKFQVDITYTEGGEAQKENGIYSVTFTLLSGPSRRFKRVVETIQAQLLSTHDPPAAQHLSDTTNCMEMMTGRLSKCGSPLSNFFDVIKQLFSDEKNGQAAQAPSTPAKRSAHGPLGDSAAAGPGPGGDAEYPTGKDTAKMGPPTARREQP

CNCc1ccc(-c2ncnc3[nH]cnc23)cc1
inhibition [1]: 34% | inhibition [2]: 72.5%

NCCc1ccc(-c2ncnc3[nH]cnc23)cc1
inhibition [3]: 50.5%

NCC1CN(c2ncnc3[nH]c4cnccc4c23)CCO1 (stereo not given)
inhibition [4]: 2%

c1cnc2[nH]ccc2c1
inhibition [5]: 13.5%

NC1CCN(c2ncnc3[nH]ccc23)CC1
inhibition [6]: 5.5%

COC(=O)c1cnc(Nc2cnc(C#N)cn2)cc1NCC1CCNCC1
inhibition [7]: 9.5%

NCC1CCN(c2ncnc3[nH]ccc23)CC1
inhibition [8]: 23.5%

C[C@H](CN(C)C)Oc1nc(Nc2cc3cccc(Cl)c3cn2)cnc1C#N
inhibition [9]: 5.5% | inhibition [10]: 28.5%
